Measurements taken from patent US20160237032A1, “PROCESS TO MANUFACTURE N-[(3S)-1-[4-[(3-FLUOROPHENYL)METHOXY]PHENYL]-5-OXO-PYRROLIDIN-3-YL]ACETAMIDE” (Hoffmann-La Roche Inc., priority 2013, published 2016).

Assay: thermodynamic stability of polymorphic forms
Format: physicochemical
Conditions: at room temperature

CC(=O)N[C@H]1CC(=O)N(c2ccc(OCc3cccc(F)c3)cc2)C1 [Polymorph B, N-[(3S)-1-[4-[(3-fluorophenyl)methoxy]phenyl]-5-oxo-pyrrolidin-3-yl]acetamide]
thermodynamic stability of the crystal form: thermodynamically stable form
